Experimental data as given in PMC9030254, “Target Hopping from Protein Kinases to PXR: Identification of Small-Molecule Protein Kinase Inhibitors as Selective Modulators of Pregnane X Receptor from TüKIC Library” (Cells, 2022).

Experiments:
Experiment in all cases: Kinase profiling
Type in all cases: biochemical
BMPR1A = target: T1, BMPR1A (Homo sapiens, UniProt P36894)
T1 construct: purchased ProQinase (Freiburg, Germany)
Description: (§1) The analysis was performed by ProQinase (Freiburg, Germany).

CDK16/CycY = target: T2, CDK16/CycY (Homo sapiens, UniProt Q00536)
T2 construct: purchased ProQinase (Freiburg, Germany)
Description: as §1

CDK9/CycK = target: T3, CDK9/CycK (Homo sapiens, UniProt P50750)
T3 construct: purchased ProQinase (Freiburg, Germany)
Description: as §1

CHK1 = target: T4, CHK1 (Homo sapiens, UniProt O14757)
T4 construct: purchased ProQinase (Freiburg, Germany)
T4 sequence (O14757 1-476): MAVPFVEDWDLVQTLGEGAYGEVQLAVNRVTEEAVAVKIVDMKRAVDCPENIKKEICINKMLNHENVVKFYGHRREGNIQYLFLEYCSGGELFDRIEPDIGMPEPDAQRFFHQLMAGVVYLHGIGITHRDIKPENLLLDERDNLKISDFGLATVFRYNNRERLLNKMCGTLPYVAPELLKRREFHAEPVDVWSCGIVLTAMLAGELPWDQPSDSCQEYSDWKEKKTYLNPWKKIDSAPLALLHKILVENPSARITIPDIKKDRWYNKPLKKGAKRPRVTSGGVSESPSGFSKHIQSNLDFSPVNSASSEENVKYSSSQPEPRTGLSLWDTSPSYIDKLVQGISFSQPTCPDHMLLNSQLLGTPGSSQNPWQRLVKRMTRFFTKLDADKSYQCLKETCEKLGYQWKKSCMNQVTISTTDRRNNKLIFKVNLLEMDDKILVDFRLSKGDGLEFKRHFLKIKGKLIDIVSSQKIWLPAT
Description: as §1

CK1epsilon = target: T5, CK1epsilon (Homo sapiens, UniProt P49674)
T5 construct: purchased ProQinase (Freiburg, Germany)
Description: as §1

EPHA5 = target: T6, EPHA5 (Homo sapiens, UniProt P54756)
T6 construct: purchased ProQinase (Freiburg, Germany)
T6 sequence (P54756 25-1037): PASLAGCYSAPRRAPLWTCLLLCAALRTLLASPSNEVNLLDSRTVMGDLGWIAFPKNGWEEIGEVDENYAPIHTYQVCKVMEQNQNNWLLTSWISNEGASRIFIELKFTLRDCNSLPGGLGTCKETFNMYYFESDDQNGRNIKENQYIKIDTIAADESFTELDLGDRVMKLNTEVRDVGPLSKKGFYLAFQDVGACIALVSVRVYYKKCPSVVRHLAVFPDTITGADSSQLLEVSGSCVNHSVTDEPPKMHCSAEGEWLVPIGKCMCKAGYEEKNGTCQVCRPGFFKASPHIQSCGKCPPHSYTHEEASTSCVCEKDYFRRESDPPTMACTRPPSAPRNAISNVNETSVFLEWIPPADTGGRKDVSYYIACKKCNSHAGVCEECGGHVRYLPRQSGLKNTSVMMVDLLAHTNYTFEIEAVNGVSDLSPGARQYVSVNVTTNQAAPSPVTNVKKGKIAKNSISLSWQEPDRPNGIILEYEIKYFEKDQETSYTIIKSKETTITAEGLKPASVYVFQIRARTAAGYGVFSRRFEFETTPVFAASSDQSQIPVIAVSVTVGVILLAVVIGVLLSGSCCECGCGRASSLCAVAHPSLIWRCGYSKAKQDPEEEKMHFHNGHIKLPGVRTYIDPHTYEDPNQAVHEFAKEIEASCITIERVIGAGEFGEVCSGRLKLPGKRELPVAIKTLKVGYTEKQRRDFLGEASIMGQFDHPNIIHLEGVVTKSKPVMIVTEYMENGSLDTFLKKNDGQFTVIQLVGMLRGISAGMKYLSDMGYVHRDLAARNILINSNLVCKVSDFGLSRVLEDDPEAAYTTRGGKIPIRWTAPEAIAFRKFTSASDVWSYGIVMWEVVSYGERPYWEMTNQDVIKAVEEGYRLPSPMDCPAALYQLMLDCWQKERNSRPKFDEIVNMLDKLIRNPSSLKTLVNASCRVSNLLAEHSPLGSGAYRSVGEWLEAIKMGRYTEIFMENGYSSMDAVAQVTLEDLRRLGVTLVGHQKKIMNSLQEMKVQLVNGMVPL
Description: as §1

IGF1R = target: T7, IGF1R (Homo sapiens, UniProt P08069)
T7 construct: purchased ProQinase (Freiburg, Germany)
T7 sequence (P08069 31-1367): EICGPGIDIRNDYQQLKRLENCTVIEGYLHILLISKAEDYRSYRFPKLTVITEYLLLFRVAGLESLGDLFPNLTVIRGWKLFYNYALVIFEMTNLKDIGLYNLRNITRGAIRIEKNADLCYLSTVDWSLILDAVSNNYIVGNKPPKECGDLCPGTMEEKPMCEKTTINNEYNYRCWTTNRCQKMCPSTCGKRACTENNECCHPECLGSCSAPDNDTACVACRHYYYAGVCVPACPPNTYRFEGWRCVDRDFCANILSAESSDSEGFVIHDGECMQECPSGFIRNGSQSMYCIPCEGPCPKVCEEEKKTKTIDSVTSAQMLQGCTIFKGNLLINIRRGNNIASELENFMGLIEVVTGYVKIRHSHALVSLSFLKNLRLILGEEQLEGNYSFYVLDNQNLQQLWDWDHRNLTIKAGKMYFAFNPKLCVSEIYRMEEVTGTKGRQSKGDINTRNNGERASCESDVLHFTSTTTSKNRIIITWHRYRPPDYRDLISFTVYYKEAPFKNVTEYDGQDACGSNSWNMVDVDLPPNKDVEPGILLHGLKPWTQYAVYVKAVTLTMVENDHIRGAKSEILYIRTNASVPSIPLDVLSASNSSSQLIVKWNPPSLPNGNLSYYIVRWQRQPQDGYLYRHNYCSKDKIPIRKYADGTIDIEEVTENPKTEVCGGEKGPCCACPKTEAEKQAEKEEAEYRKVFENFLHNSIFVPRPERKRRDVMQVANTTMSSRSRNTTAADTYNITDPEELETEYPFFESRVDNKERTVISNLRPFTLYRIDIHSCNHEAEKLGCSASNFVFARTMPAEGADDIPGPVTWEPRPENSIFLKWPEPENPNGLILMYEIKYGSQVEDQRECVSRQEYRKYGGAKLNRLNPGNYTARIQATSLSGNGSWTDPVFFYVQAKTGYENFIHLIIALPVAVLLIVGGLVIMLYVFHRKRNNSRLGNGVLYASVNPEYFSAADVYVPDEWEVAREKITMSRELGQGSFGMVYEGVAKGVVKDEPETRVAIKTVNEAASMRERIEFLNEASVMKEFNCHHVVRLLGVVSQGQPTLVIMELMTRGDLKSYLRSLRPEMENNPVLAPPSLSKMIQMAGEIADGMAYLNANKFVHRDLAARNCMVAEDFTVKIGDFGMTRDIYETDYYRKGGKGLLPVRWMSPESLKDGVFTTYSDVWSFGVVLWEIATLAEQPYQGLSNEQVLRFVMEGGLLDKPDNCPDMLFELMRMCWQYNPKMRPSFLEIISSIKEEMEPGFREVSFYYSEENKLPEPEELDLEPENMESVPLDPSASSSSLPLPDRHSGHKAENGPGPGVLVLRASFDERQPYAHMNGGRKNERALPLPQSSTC
Description: as §1

IKKalpha = target: T8, IKKalpha (Homo sapiens, UniProt O15111)
T8 construct: purchased ProQinase (Freiburg, Germany)
T8 sequence (O15111 1-745): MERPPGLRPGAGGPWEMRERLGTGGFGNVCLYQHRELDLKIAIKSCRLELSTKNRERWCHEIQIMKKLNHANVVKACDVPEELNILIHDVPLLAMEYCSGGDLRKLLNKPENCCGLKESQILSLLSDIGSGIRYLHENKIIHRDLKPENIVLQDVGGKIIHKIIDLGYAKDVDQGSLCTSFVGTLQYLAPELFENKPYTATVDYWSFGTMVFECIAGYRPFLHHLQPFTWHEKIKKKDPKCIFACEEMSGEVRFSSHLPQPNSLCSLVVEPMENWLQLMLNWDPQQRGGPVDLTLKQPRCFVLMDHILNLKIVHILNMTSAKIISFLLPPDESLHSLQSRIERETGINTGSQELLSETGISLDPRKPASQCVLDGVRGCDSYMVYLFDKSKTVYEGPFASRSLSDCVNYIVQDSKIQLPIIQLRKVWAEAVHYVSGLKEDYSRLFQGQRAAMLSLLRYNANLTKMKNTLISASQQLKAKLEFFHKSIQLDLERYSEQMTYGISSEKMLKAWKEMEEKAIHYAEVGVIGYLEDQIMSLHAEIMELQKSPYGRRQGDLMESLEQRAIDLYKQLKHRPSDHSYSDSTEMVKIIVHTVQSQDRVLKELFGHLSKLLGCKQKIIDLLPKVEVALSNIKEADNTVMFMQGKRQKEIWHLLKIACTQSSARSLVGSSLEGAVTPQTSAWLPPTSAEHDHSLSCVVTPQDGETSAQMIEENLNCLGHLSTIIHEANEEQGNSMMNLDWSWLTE
Description: as §1

IRAK1 = target: T9, IRAK1 (Homo sapiens, UniProt P51617)
T9 construct: purchased ProQinase (Freiburg, Germany)
T9 sequence (P51617 whole entry): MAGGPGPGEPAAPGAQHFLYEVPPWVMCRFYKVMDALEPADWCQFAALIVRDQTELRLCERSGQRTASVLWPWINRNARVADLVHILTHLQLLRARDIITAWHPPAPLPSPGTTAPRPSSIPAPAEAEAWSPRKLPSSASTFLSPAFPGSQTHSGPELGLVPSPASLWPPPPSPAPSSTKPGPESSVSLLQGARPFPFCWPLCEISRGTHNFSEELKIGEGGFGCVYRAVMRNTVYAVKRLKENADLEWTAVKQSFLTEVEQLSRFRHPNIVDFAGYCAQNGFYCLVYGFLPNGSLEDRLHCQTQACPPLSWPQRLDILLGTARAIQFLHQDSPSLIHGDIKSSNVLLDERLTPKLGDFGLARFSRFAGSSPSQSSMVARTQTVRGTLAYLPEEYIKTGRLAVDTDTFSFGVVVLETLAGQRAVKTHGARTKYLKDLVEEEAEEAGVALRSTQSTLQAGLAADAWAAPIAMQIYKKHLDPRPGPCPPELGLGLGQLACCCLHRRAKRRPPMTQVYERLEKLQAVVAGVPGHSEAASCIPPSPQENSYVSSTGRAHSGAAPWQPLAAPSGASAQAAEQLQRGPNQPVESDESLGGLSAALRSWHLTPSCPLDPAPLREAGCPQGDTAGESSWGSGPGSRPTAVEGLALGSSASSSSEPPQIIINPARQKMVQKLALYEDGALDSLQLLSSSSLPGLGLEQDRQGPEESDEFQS
Description: as §1

MARK2 = target: T10, MARK2 (Homo sapiens, UniProt Q7KZI7)
T10 construct: purchased ProQinase (Freiburg, Germany)
Description: as §1

MST3 = target: T11, MST3 (Homo sapiens, UniProt Q9Y6E0)
T11 construct: purchased ProQinase (Freiburg, Germany)
Description: as §1

NEK3 = target: T12, NEK3 (Homo sapiens, UniProt P51956)
T12 construct: purchased ProQinase (Freiburg, Germany)
T12 sequence (P51956 1-506): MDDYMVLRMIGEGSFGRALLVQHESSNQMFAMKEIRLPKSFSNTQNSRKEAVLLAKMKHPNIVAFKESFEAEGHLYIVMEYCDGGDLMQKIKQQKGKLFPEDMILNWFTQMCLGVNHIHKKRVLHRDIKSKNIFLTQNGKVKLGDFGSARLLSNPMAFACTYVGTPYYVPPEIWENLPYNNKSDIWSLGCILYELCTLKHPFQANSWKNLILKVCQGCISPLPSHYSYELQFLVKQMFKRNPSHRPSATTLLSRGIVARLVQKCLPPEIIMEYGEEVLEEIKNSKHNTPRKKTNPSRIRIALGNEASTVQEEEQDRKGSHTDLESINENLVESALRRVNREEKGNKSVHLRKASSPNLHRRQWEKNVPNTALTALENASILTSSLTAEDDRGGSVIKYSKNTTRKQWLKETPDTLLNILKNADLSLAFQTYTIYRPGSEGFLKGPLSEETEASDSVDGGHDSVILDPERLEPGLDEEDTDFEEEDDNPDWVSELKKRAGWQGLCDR
Description: as §1

PKCtheta = target: T13, PKCtheta (Homo sapiens, UniProt Q04759)
T13 construct: purchased ProQinase (Freiburg, Germany)
T13 sequence (Q04759 whole entry): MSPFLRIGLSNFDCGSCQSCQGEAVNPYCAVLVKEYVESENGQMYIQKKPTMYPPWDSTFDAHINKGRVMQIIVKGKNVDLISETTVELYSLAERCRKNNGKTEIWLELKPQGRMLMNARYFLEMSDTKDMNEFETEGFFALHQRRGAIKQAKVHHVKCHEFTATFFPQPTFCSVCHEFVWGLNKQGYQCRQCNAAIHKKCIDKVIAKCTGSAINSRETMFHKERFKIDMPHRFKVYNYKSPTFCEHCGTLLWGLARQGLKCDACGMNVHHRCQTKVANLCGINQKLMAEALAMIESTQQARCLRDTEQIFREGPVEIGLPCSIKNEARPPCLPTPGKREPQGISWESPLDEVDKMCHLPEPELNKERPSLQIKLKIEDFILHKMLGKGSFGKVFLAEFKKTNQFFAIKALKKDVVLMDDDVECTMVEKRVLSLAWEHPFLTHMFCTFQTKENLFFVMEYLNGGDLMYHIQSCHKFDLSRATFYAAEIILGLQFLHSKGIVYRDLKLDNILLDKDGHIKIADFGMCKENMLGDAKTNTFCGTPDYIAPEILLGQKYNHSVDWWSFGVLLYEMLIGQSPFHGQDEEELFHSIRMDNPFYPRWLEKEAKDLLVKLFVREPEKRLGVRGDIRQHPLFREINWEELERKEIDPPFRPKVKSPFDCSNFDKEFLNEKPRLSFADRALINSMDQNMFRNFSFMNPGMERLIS
Description: as §1

RPS6KA2 = target: T14, RPS6KA2 (Homo sapiens, UniProt Q15349)
T14 construct: purchased ProQinase (Freiburg, Germany)
Description: as §1

SLK = target: T15, SLK (Homo sapiens, UniProt Q9H2G2)
T15 construct: purchased ProQinase (Freiburg, Germany)
Description: as §1

SRPK2 = target: T16, SRPK2 (Homo sapiens, UniProt P78362)
T16 construct: purchased ProQinase (Freiburg, Germany)
T16 sequence (P78362 whole entry): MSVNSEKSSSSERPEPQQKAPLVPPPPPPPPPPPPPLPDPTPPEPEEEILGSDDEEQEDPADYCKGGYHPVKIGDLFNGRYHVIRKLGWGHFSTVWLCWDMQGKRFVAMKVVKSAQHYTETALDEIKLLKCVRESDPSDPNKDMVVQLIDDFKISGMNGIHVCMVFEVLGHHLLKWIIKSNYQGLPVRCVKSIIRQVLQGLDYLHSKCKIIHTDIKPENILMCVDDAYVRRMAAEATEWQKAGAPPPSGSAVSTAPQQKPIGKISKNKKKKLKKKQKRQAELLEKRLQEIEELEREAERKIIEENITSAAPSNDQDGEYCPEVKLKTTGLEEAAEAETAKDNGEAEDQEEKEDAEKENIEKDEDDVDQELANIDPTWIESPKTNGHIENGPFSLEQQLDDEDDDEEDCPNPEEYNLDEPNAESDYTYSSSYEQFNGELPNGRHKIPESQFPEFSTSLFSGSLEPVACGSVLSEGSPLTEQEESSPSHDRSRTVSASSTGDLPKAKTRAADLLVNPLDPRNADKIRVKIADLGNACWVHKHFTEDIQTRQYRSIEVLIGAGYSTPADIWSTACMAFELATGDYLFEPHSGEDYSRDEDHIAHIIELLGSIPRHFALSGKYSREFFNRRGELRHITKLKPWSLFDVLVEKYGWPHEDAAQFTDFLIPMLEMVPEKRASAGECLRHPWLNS
Description: as §1

VEGFR3 = target: T17, VEGFR3 (Homo sapiens, UniProt P35916)
T17 construct: purchased ProQinase (Freiburg, Germany)
Description: as §1

T1 sequence (P36894 24-532): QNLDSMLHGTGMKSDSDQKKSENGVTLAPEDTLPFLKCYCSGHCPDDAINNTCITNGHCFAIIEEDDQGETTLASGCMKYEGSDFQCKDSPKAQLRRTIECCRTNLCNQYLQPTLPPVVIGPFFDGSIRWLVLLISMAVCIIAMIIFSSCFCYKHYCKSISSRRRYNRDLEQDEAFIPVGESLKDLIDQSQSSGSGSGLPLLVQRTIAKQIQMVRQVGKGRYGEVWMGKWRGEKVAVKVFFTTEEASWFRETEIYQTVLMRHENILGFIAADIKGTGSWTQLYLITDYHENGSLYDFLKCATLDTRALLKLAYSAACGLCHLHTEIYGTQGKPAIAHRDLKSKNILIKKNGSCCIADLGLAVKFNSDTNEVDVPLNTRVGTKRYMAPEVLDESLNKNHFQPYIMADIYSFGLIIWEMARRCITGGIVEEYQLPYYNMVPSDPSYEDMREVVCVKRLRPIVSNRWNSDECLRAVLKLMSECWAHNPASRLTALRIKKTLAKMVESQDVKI

SMILES | Residual activity (BMPR1A; 1.0E-05 M) | Residual activity (BMPR1A; 1.0E-06 M) | Residual activity (CDK16/CycY; 1.0E-05 M) | Residual activity (CDK16/CycY; 1.0E-06 M) | Residual activity (CDK9/CycK; 1.0E-05 M) | Residual activity (CDK9/CycK; 1.0E-06 M) | Residual activity (CHK1; 1.0E-05 M) | Residual activity (CHK1; 1.0E-06 M) | Residual activity (CK1epsilon; 1.0E-05 M) | Residual activity (CK1epsilon; 1.0E-06 M) | Residual activity (EPHA5; 1.0E-05 M) | Residual activity (EPHA5; 1.0E-06 M) | Residual activity (IGF1R; 1.0E-05 M) | Residual activity (IGF1R; 1.0E-06 M) | Residual activity (IKKalpha; 1.0E-05 M) | Residual activity (IKKalpha; 1.0E-06 M) | Residual activity (IRAK1; 1.0E-05 M) | Residual activity (IRAK1; 1.0E-06 M) | Residual activity (MARK2; 1.0E-05 M) | Residual activity (MARK2; 1.0E-06 M) | other results
O=C(Cc1ccccc1)Nc1ccc(F)c(Nc2ccc3c(c2)CCCCC3=O)c1 [Compound 100] | 82 % of control | 101 % of control | 101 % of control | 99 % of control | 89 % of control | 91 % of control | 91 % of control | 91 % of control | 117 % of control | 107 % of control | 67 % of control | 96 % of control | 101 % of control | 97 % of control | 102 % of control | 102 % of control | 106 % of control | 107 % of control | 104 % of control | 103 % of control | Residual activity (MST3; 1.0E-05 M): 114 % of control; Residual activity (MST3; 1.0E-06 M): 122 % of control; Residual activity (NEK3; 1.0E-05 M): 92 % of control; Residual activity (NEK3; 1.0E-06 M): 104 % of control; Residual activity (PKCtheta; 1.0E-05 M): 82 % of control; Residual activity (PKCtheta; 1.0E-06 M): 104 % of control; Residual activity (RPS6KA2; 1.0E-05 M): 84 % of control; Residual activity (RPS6KA2; 1.0E-06 M): 95 % of control; Residual activity (SLK; 1.0E-05 M): 93 % of control; Residual activity (SLK; 1.0E-06 M): 98 % of control; Residual activity (SRPK2; 1.0E-05 M): 94 % of control; Residual activity (SRPK2; 1.0E-06 M): 100 % of control; Residual activity (VEGFR3; 1.0E-05 M): 84 % of control; Residual activity (VEGFR3; 1.0E-06 M): 108 % of control
O=C(Nc1ccc(F)c(Nc2ccc3c(c2)CCCCC3=O)c1)c1cccc(F)c1 [Compound 109] | 88 % of control | 92 % of control | 100 % of control | 96 % of control | 95 % of control | 90 % of control | 90 % of control | 88 % of control | 15 % of control | 52 % of control | 60 % of control | 93 % of control | 80 % of control | 104 % of control | 93 % of control | 104 % of control | 104 % of control | 100 % of control | 99 % of control | 107 % of control | inhibition at 10 µM (CK1epsilon; 10 µM, read-out: inhibition of CK1-ε): ≥ 50%; Residual activity (MST3; 1.0E-05 M): 103 % of control; Residual activity (MST3; 1.0E-06 M): 106 % of control; Residual activity (NEK3; 1.0E-05 M): 97 % of control; Residual activity (NEK3; 1.0E-06 M): 96 % of control; Residual activity (PKCtheta; 1.0E-05 M): 84 % of control; Residual activity (PKCtheta; 1.0E-06 M): 106 % of control; Residual activity (RPS6KA2; 1.0E-05 M): 75 % of control; Residual activity (RPS6KA2; 1.0E-06 M): 95 % of control; Residual activity (SLK; 1.0E-05 M): 91 % of control; Residual activity (SLK; 1.0E-06 M): 94 % of control; Residual activity (SRPK2; 1.0E-05 M): 102 % of control; Residual activity (SRPK2; 1.0E-06 M): 111 % of control; Residual activity (VEGFR3; 1.0E-05 M): 88 % of control; Residual activity (VEGFR3; 1.0E-06 M): 105 % of control
